Data published in PubChem BioAssay AID256 (DTP/NCI, 2004).
Values joined by “and” are separate entries in the source; they are usually repeats but may differ in a detail not shown here. Equal values may be shown once. Inconclusive results and toxic doses are left out. Rule for the calls: active = survival T/C of 150% or more; inactive = T/C below 125% in these data.

Test system: CD2F1 mice, L1210 leukemia ip, survival T/C
Test: NCI In Vivo Anticancer Drug Screen. Data for tumor model L1210 Leukemia (intraperitoneal) in CD2F1 (CDF1) mice
Details: higher = longer survival
Procedure, shortened: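 Read-out first: treated-group measurement over vehicle-control measurement, expressed as a ratio. Animals bore a transplanted tumor line and were dosed with compound or vehicle.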

[1] = endpoint: mean survival time, dose: 100.0 mg/kg/injection, schedule: Q04DX003 (ip), vehicle: saline with Tween-80
[2] = endpoint: mean survival time, dose: 200.0 mg/kg/injection, schedule: Q04DX003 (ip), vehicle: saline with Tween-80
[3] = endpoint: mean survival time, dose: 400.0 mg/kg/injection, schedule: Q04DX003 (ip), vehicle: saline with Tween-80
[4] = endpoint: mean survival time, dose: 50.0 mg/kg/injection, schedule: Q01DX009 (ip), vehicle: saline with Tween-80
[5] = endpoint: mean survival time, dose: 100.0 mg/kg/injection, schedule: Q01DX009 (ip), vehicle: saline with Tween-80
[6] = endpoint: mean survival time, dose: 200.0 mg/kg/injection, schedule: Q01DX009 (ip), vehicle: saline with Tween-80
[7] = endpoint: mean survival time, dose: 25.0 mg/kg/injection, schedule: Q04DX003 (ip), vehicle: saline with Tween-80
[8] = endpoint: mean survival time, dose: 50.0 mg/kg/injection, schedule: Q04DX003 (ip), vehicle: saline with Tween-80
[9] = endpoint: mean survival time, dose: 400.0 mg/kg/injection, schedule: Q01DX009 (ip), vehicle: saline with Tween-80

Measured: T/C

O=[N+]([O-])c1ccc(/C=C/C=C\c2cccc(S(=O)(=O)F)c2)c(Cl)c1
inactive: endpoint: mean survival time, dose: 100.0 mg/kg/injection, schedule: Q01DX009 (ip), vehicle: acetone 100 % of control | [1] 102 % of control | endpoint: mean survival time, dose: 200.0 mg/kg/injection, schedule: Q01DX009 (ip), vehicle: acetone 104 % of control | [2] 97 % of control | endpoint: mean survival time, dose: 400.0 mg/kg/injection, schedule: Q01DX009 (ip), vehicle: acetone 104 % of control | [3] 94 % of control

Cn1c(=O)c2c(ncn2CCNCC(O)c2cc(C(C)(C)C)c(O)c(C(C)(C)C)c2)n(C)c1=O (centres undefined)
inactive: endpoint: mean survival time, dose: 12.5 mg/kg/injection, schedule: Q01DX005 (ip), vehicle: distilled water + Tween-80 100 % of control | endpoint: mean survival time, dose: 25.0 mg/kg/injection, schedule: Q01DX005 (ip), vehicle: distilled water + Tween-80 100 % of control | endpoint: mean survival time, dose: 50.0 mg/kg/injection, schedule: Q01DX005 (ip), vehicle: distilled water + Tween-80 106 % of control | endpoint: mean survival time, dose: 100.0 mg/kg/injection, schedule: Q01DX005 (ip), vehicle: distilled water + Tween-80 109 % of control | endpoint: mean survival time, dose: 200.0 mg/kg/injection, schedule: Q01DX005 (ip), vehicle: distilled water + Tween-80 101 % of control

CC[C@]1(O)C[C@H](OC2CC(N(C)C)C(OC3CC(O)C(O)C(C)O3)C(C)O2)c2c(cc3c(c2O)C(=O)c2c(O)ccc(O)c2C3=O)[C@H]1C(=O)OC (some centres undefined)
inactive: endpoint: mean survival time, dose: 0.12 mg/kg/injection, schedule: Q01DX009 (ip), vehicle: Klucel (hydroxypropylcellulose) (HPC) 114 % of control and 109 % of control and 110 % of control

COc1ccc(C(C)N=CC(C)(C)C)cc1 (centres undefined)
inactive: [2] 100 % of control | [3] 88 % of control

O=[N+]([O-])c1ccc2ccccc2c1-c1c([N+](=O)[O-])ccc2ccccc12
inactive: [4] 92 % of control | [5] 90 % of control | [1] 93 % of control | [6] 90 % of control | [2] 87 % of control

Nc1cccc(OCc2nc(N)nc(N)c2-c2ccc(Cl)cc2)c1
inactive: endpoint: mean survival time, dose: 37.5 mg/kg/injection, schedule: Q01DX001 (ip), vehicle: saline 96 % of control | endpoint: mean survival time, dose: 75.0 mg/kg/injection, schedule: Q01DX001 (ip), vehicle: saline 100 % of control | endpoint: mean survival time, dose: 150.0 mg/kg/injection, schedule: Q01DX001 (ip), vehicle: saline 91 % of control

O=C(CCc1ccc(O)cc1)c1c(O)cc(O)cc1O
inactive: endpoint: mean survival time, dose: 50.0 mg/kg/injection, schedule: Q01DX009 (ip), vehicle: saline + alcohol 110 % of control | endpoint: mean survival time, dose: 100.0 mg/kg/injection, schedule: Q01DX009 (ip), vehicle: saline + alcohol 96 % of control | endpoint: mean survival time, dose: 200.0 mg/kg/injection, schedule: Q01DX009 (ip), vehicle: saline + alcohol 89 % of control | endpoint: mean survival time, dose: 400.0 mg/kg/injection, schedule: Q01DX009 (ip), vehicle: saline + alcohol 98 % of control

CC(C)(C)OOC(=O)C1CCCCCCC1
inactive: [1] 98 % of control | [2] 96 % of control | [3] 96 % of control

Cc1cc(Br)c2ccccc2c1N(CC(=O)O)S(=O)(=O)c1ccccc1
inactive: endpoint: mean survival time, dose: 12.5 mg/kg/injection, schedule: Q01DX009 (ip), vehicle: saline with Tween-80 103 % of control | endpoint: mean survival time, dose: 25.0 mg/kg/injection, schedule: Q01DX009 (ip), vehicle: saline with Tween-80 103 % of control | [4] 94 % of control

Cc1ccc(S(=O)(=O)NOCCCCONS(=O)(=O)c2ccc(C)cc2)cc1
inactive: [7] 91 % of control | [8] 89 % of control | [1] 89 % of control and 97 % of control

COC(=O)c1ccc(N(C)C/C(CN2C(=O)c3ccccc3C2=O)=N\O)cc1
inactive: endpoint: mean survival time, dose: 75.0 mg/kg/injection, schedule: Q01DX001 (ip), vehicle: other 92 % of control | endpoint: mean survival time, dose: 150.0 mg/kg/injection, schedule: Q01DX001 (ip), vehicle: other 106 % of control

c1ccc(NC2=NCCO2)cc1
inactive: [1] 93 % of control | [2] 98 % of control

CCCCCCCCCCCCCCCCCC[Se][Se]CCCCCCCCCCCCCCCCCC
inactive: [7] 93 % of control | [8] 95 % of control | [1] 95 % of control

c1ccc([Te][Te]c2ccccc2)cc1
inactive: endpoint: median survival time, dose: 12.5 mg/kg/injection, schedule: Q01DX009 (ip), vehicle: saline with Tween-80 104 % of control | endpoint: median survival time, dose: 25.0 mg/kg/injection, schedule: Q01DX009 (ip), vehicle: saline with Tween-80 108 % of control | endpoint: median survival time, dose: 50.0 mg/kg/injection, schedule: Q01DX009 (ip), vehicle: saline with Tween-80 104 % of control

CCCC[N+](=O)[O-]
inactive: endpoint: mean survival time, dose: 100.0 mg/kg/injection, schedule: Q04DX003 (ip), vehicle: saline 98 % of control | endpoint: mean survival time, dose: 200.0 mg/kg/injection, schedule: Q04DX003 (ip), vehicle: saline 100 % of control | endpoint: mean survival time, dose: 400.0 mg/kg/injection, schedule: Q04DX003 (ip), vehicle: saline 102 % of control

COc1cc([N+](=O)[O-])ccc1C(=O)O
inactive: endpoint: mean survival time, dose: 100.0 mg/kg/injection, schedule: Q01DX001 (ip), vehicle: Klucel (hydroxypropylcellulose) (HPC) 95 % of control | endpoint: mean survival time, dose: 200.0 mg/kg/injection, schedule: Q01DX001 (ip), vehicle: Klucel (hydroxypropylcellulose) (HPC) 100 % of control | endpoint: mean survival time, dose: 400.0 mg/kg/injection, schedule: Q01DX001 (ip), vehicle: Klucel (hydroxypropylcellulose) (HPC) 103 % of control

O=C1CC(c2ccccc2)CO1 (centres undefined)
inactive: endpoint: mean survival time, dose: 100.0 mg/kg/injection, schedule: Q01DX001 (ip), vehicle: saline 106 % of control | endpoint: mean survival time, dose: 200.0 mg/kg/injection, schedule: Q01DX001 (ip), vehicle: saline 100 % of control

CCCOC(=O)c1ccc(N2N=C(C)CCC2=O)cc1
inactive: endpoint: mean survival time, dose: 25.0 mg/kg/injection, schedule: Q04DX002 (ip), vehicle: saline with Tween-80 97 % of control | endpoint: mean survival time, dose: 50.0 mg/kg/injection, schedule: Q04DX002 (ip), vehicle: saline with Tween-80 102 % of control | endpoint: mean survival time, dose: 100.0 mg/kg/injection, schedule: Q04DX002 (ip), vehicle: saline with Tween-80 97 % of control

COC(=O)Nc1cccc(OC(=O)N(C(C)C)C(C)C)c1
inactive: [1] 94 % of control | [2] 97 % of control | [3] 96 % of control

COC(=O)c1ccc(C(=O)OC)cc1
inactive: [5] 95 % of control | [1] 93 % of control | [6] 98 % of control | [2] 104 % of control | [9] 95 % of control | [3] 101 % of control

C=CCSc1ccccn1
inactive: endpoint: mean survival time, dose: 50.0 mg/kg/injection, schedule: Q01DX001 (ip), vehicle: carboxymethylcellulose (CMC) 94 % of control | endpoint: mean survival time, dose: 100.0 mg/kg/injection, schedule: Q01DX001 (ip), vehicle: carboxymethylcellulose (CMC) 86 % of control | endpoint: mean survival time, dose: 200.0 mg/kg/injection, schedule: Q01DX001 (ip), vehicle: carboxymethylcellulose (CMC) 88 % of control | endpoint: mean survival time, dose: 400.0 mg/kg/injection, schedule: Q01DX001 (ip), vehicle: carboxymethylcellulose (CMC) 94 % of control

C1CC[N-]CC1.[Cl][Pt+2][Cl].[NH-]C1CC1
inactive: endpoint: mean survival time, dose: 3.0 mg/kg/injection, schedule: Q04DX003 (ip), vehicle: water 100 % of control | endpoint: mean survival time, dose: 6.25 mg/kg/injection, schedule: Q01DX009 (ip), vehicle: distilled water + Tween-80 120 % of control | endpoint: mean survival time, dose: 6.25 mg/kg/injection, schedule: Q01DX009 (ip), vehicle: water 118 % of control | endpoint: mean survival time, dose: 25.0 mg/kg/injection, schedule: Q01DX009 (ip), vehicle: water 119 % of control | endpoint: mean survival time, dose: 25.0 mg/kg/injection, schedule: Q04DX003 (ip), vehicle: distilled water + Tween-80 90 % of control | endpoint: mean survival time, dose: 25.0 mg/kg/injection, schedule: Q04DX003 (ip), vehicle: water 90 % of control

CON(C)N=Nc1ccc(C(N)=O)cc1
inactive: endpoint: mean survival time, dose: 4.68 mg/kg/injection, schedule: Q01DX009 (ip), vehicle: Klucel (hydroxypropylcellulose) (HPC) 96 % of control and 110 % of control | endpoint: mean survival time, dose: 9.37 mg/kg/injection, schedule: Q01DX009 (ip), vehicle: Klucel (hydroxypropylcellulose) (HPC) 87 % of control and 109 % of control | endpoint: mean survival time, dose: 18.75 mg/kg/injection, schedule: Q01DX009 (ip), vehicle: Klucel (hydroxypropylcellulose) (HPC) 96 % of control and 101 % of control | endpoint: mean survival time, dose: 37.5 mg/kg/injection, schedule: Q01DX009 (ip), vehicle: Klucel (hydroxypropylcellulose) (HPC) 98 % of control and 104 % of control | endpoint: mean survival time, dose: 75.0 mg/kg/injection, schedule: Q01DX009 (ip), vehicle: Klucel (hydroxypropylcellulose) (HPC) 100 % of control and 103 % of control | endpoint: mean survival time, dose: 150.0 mg/kg/injection, schedule: Q01DX009 (ip), vehicle: Klucel (hydroxypropylcellulose) (HPC) 114 % of control and 103 % of control | endpoint: mean survival time, dose: 300.0 mg/kg/injection, schedule: Q01DX009 (ip), vehicle: Klucel (hydroxypropylcellulose) (HPC) 114 % of control

C=C(c1ccccc1)c1ccc(F)cc1
inactive: endpoint: mean survival time, dose: 100.0 mg/kg/injection, schedule: Q01DX009 (ip), vehicle: saline sonified 102 % of control | [1] 100 % of control | endpoint: mean survival time, dose: 200.0 mg/kg/injection, schedule: Q01DX009 (ip), vehicle: saline sonified 97 % of control | [2] 100 % of control | endpoint: mean survival time, dose: 400.0 mg/kg/injection, schedule: Q01DX009 (ip), vehicle: saline sonified 103 % of control | [3] 102 % of control

CC(C(=O)c1ccccc1)=C(C(F)(F)F)C(F)(F)F
inactive: [5] 98 % of control | [1] 91 % of control | [6] 97 % of control | [2] 97 % of control | [9] 103 % of control | [3] 100 % of control
